These are literature values, as cited in US6306435A, “Oral pharmaceutical preparation embedded in an oily matrix and methods of making the same” (Yung Shin Pharmaceutical Industrial Co. Ltd., priority 2000, dated 2001).

Like-named read-outs stand apart in the source and are kept apart here.

Test in data set [1]: not given
This is another data set of the same source.

For the compound `COc1ccc2[nH]c([S+]([O-])Cc3ncc(C)c(OC)c3C)nc2c1` (centres unmarked) [Omeprazole], the “degradation before reaching the small intestine” value (conventional oral dosage form) is “more than half”. The “effect of moisture, organic solvents and acidic substances on stability” value (moisture, organic solvents and acidic substances) is “deleterious effect”. Moreover, the half-life of degradation was 18 h (pH 6.5); “about 300 days” (pH 11); “less than 10 minutes” (water solutions, pH-values below 4). The “solubility in alkaline solutions” value in data set [1] (alkaline solutions, as negatively charged ion) is recorded as “very soluble”. In addition, the “pKa (pyridinium)” value in data set [1] (pyridinium) is ~ 4. For the same compound, the solubility in water result in data set [1] (water) is listed as “very slightly soluble”.
